Measured values: patent publication EP0983256B1, “TRIPTOLIDE DERIVATIVES USEFUL IN THE TREATMENT OF AUTOIMMUNE DISEASES” (priority 1997, dated 1998)
≈ marks a conversion by molar mass, not a printed value.

Columns and labels:
IL-2 production = assay: Interleukin-2 assay (IL-2 production, ELISA); format: cell-based, human; settings: cells stimulated with PHA 10 µg/mL and 10^-8 M TPA; incubation 16-24 hours
Procedure: (§1) Jurkat E6-1 cell line (ATCC), a human leukemic T cell line or lymphocytes prepared from fresh human blood, are grown in compiete culture medium consisting of RPMI-1640 (Mediatech) supplemented with 10% v/v fetal bovine serum (HyClone, Logen, Vermont), penicillin (100 units/mL), streptomycin (200 µg/mL), and 2mM L-glutamine (GIBCO, Grand Island, New York). The cells are grown to a concentration of between 1.2 to 1.8 X 10^6 cells/mL before use. The cells are then centrifuged at low speed and resuspended to a concentration of 1.25 X 10^6 cells/mL in fresh medium.
(§2) The compounds to be tested are dissolved in DMSO, and water is added to make a 50% DMSO/water solution. The compounds are then diluted in sterile water such that the DMSO concentrations are less then 0.05%. The cells at a concentration of 1.25 X 10^6 cells/mL are stimulated with phytohemagglutinin 10 µg/mL (PHA) and 10^-8 M phorbol ester (12-O-tetradecanoylphorbol 13-acetate: TPA), (Sigma, St. Louis, Missouri). The compounds are then added and the cells are plated in flat-bottom tissue culture plates (Falcon, Lincoln Park, New Jersey), with 250,000 cells/well. Plates are then incubated at 37°C under an atmosphere of 5% CO2.
(§3) After incubation (16-24 hours), the cells are assayed for IL-2 production and cell viability (MTT). IL-2 production is assayed utilizing a solid phase ELISA immunoassay, sold in kit form by R&D Systems, Inc., Minneapolis, Minnesota.

Jurkat E6-1 cell line = assay: Cell viability (MTT mitochondrial enzyme assay); format: cell-based, human; settings: same cells after removal of supernatant for the IL-2 assay; MTT 4 hours, read at 570 nm
Procedure: as §1, §2, §3
Cell viability is measured by the use of a mitochondrial enzyme assay. After removal of the supernatant for the IL-2 assay, Cell Titer 96 (a commercial solution of MTT available from Promega, Madison, Wisconsin) is added to the plates and incubated for 4 hours at 37°C. A solubilization solution is then added and incubated overnight. The plates are then read on an ELISA plate reader at a wavelength of 570 nm. Table II presents the results for the Interleukin-2 assay, the cell viability assay and the ratio of cell viability/IL-2 inhibition.

Molecule	IC50/IL-2 (IL-2 production)	IC50/MTT (Jurkat E6-1 cell line)
CC(C)[C@]1(O)C=C[C@@]2(O)[C@@]3(C)CCC4=C(COC4=O)C3CC[C@@]2(O)[C@@H]1O (stereo partly drawn) [Example 2, [5aR-(5aα,6α,7β,9aα,9bα)]-3b,4,5,5a,6,7,9a,9b,10,11-decahydro-5a,6,7,9a-tetrahydroxy-9b-methyl-7-(1-methylethyl)-phenanthro[1,2-c]furan-1(3H)-one]	14 ng/mL (≈ 0.0384 µM)	90 ng/mL (≈ 0.247 µM)
[5R-(5α,5aβ,6β,7α,9aβ,9bβ)]-3b,4,5,5a,6,7,9a,10,11-decahydro-5a,6,9a-trihydroxy-9b-methyl-7-(1-methylethyl)-5,7-epoxyphenanthro[1,2-c]furan-1(3H)-one [Example 3]	500 ng/mL	>>1,000 ng/mL
[5aS-(5aα,5bα,8β,9α,9aR*,10aβ)]-4,5a,5b,8,9,10a,11,11a-octahydro-5b,8,9-trihydroxy-5a-methyl-8-(1-methylethyl)-1H-oxireno[8a,9]phenanthro[1,2-c]furan-3(5H)-one [Example 1]	1,000 ng/mL	>>1,000 ng/mL
